This note sets out measurements from a melting point compilation (Tetko et al.; mined from patent text by program, amines drawn as free bases though some values may be those of a salt).

As a reminder, the melting point is the temperature of the solid-liquid transition.

`C#CCOc1cc(-n2nc(CC)c(CC)c2CC)c(F)cc1Cl` returned a melting point of 62 to 65 °C.

`CCc1cc(N(C)C(=O)N2CCN(c3cc(C)cc(C)c3)CC2)c(OC)nc1C` showed a melting point of 86 to 87 °C.

`CCCCc1nc2c(N)nc3cc(C)ccc3c2o1` gave a melting point of 187 to 188 °C.

With `CCN(CC)CCOc1ccc(Nc2ncc3c(n2)N(CC)C(=O)N(c2c(Cl)cccc2Cl)C3)cc1`, the melting point stood at 85 °C.

Take `C[C@H](C#Cc1ccc(Cc2ccc(Cl)cc2)s1)N(O)C(N)=O`: the melting point was determined as 132 °C.

Regarding `CC(=O)c1cc(Br)cc(Cc2cc(Cl)cc(Cc3cc(Br)ccc3O)c2O)c1O`, the melting point was 185 to 186 °C.

Molecule `Nc1nc(NCC(O)CO)c2ncn(C3C=CC(CO)C3)c2n1` (stereo not drawn) returned a melting point of 119 to 121 °C.

`COC(=O)C(=O)c1ccc(OCCCc2ccc(F)cc2)cc1` had a melting point of 42 to 43 °C.

`CCNC(=S)NS(=O)(=O)N1CCC(CCNC(=O)c2cc(Cl)ccc2OC)CC1`: the melting point is 138 to 140 °C.

Consider `Cc1cc(O)c(SCc2cccc(F)c2)c(=O)o1`, for which the melting point was determined as 124 °C.

The molecule `CC1(C)Oc2ccc(C#N)cc2[C@@H](NC(=NC#N)N2CCCC2)[C@@H]1O` (relative stereo) yielded a melting point of 263 to 264 °C.

`O=S(=O)(Nc1cccnc1Nc1ccccc1)c1cccc(Cl)c1` gave a melting point of 143 to 144 °C.

`COc1ccc2c(=O)[nH]nc(-c3ccccc3)c2c1`: the melting point lay within 230 to 235 °C.

In the case of `Cc1c(F)c(N)cc([N+](=O)[O-])c1F`, the melting point was in the range of 106 to 107 °C.

`OC[C@H](O)CCOc1nc(N2CCNCC2)nc2ccccc12` had a melting point of 151 to 156 °C.

As for `C/C(=C\c1ccc(C(=O)N2CCOCC2)cc1)c1ccc2c(c1)C(C)(C)CCC2(C)C`, the melting point was 143 to 144 °C.

`CSC(=NC(=O)N(C)C)N(C)C(=O)Nc1ccccc1`: the melting point lay in the range of 74 to 77 °C.

In turn, `O=C(O)c1c(-c2ccccc2)c(-c2ccccc2)nn1-c1ccccc1` gave a melting point of 190 °C.

With `Cc1ccc(NC(=O)c2ccc3oc(-c4c(C)cc(OCC(=O)N(C)C)cc4C)nc3c2)cc1C`, the melting point lay in the range of 207 to 209 °C.

For the molecule `COc1cc(C(C)C)c2c(c1)S(=O)(=O)N(COC(=O)C(C)(C)C)C2=O`, the melting point was in the range of 178 to 179 °C.

In turn, `O=C(O)c1cccc2c(-c3ccccc3)c([N+](=O)[O-])oc12` showed a melting point of 271 to 272 °C.

The molecule `Cc1ccccc1CC(C(=O)Nc1cnc(Br)cn1)c1ccc(S(C)(=O)=O)cc1` (stereo not drawn) gave a melting point of 194 to 195 °C.

`CS(=O)(=O)c1ccc(-n2nc(C(F)(F)F)cc2-c2ccc(-c3ccco3)cc2F)cc1` had a melting point of 223 to 225 °C.

Consider `COc1ccc(C(C)=NOCCOc2ccc(CC3SC(=O)NC3=O)cc2)cn1` (stereo not drawn), for which the melting point lay within 148 to 149 °C.

As for `Cc1c2c(nn1-c1ccc(Cl)cc1F)CCCC2`, the melting point was in the range of 84.5 to 87.5 °C.

In turn, `CC(C)(C)OC(=O)N1CCC(CN2C(=O)C3(COc4cc5c(cc43)CCO5)c3ccccc32)CC1` (stereo not drawn) gave a melting point of 96 to 98 °C.

As to `CC(C)(C)C(=O)OCOC(=O)C(C)(C)n1nc2ccc(NCCCN3CCC(OC(c4ccccc4)c4ccccc4)CC3)nn2c1=O`, the melting point is 162 °C.

For the molecule `c1ccc(C(c2ccccc2)N2CC(n3ccnn3)C2)cc1`, the melting point fell in the range of 167 to 168 °C.

`O=C(CC(O)C(F)(F)F)c1cc(Cl)cc(Cl)c1` (stereo not drawn) registered a melting point of 165 to 166 °C.

In the case of `COC(=O)c1c(Cl)nc(N2CCC(O)CC2)nc1NCc1ccc(OC)c(Cl)c1`, the melting point was 138 to 139 °C.

Take `Cc1c(-c2ccncc2)oc2c1C(=O)CCC2`: the melting point was 136 to 138 °C.

On to `O=Cc1ccccc1-c1nnn[nH]1`, for which the melting point was 130 °C.

In turn, `C(=C\c1cc(/C=C/c2ccc3cc[nH]c3c2)n[nH]1)/c1ccc(OCc2ccccn2)cc1` displayed a melting point of 211 to 214 °C.

Regarding `CCC1(C)CC(S(=O)(=O)Cc2c(F)cccc2F)=NO1` (stereo not drawn), the melting point was 64 to 65 °C.

Molecule `Clc1ccc(-c2[nH]c3c(Cl)cc(Cl)cc3c2Cl)cc1` came in with a melting point of 148 to 149 °C.

Molecule `Cc1cc(-c2cc(C(=O)O)c(=O)n(CC(C)C)n2)ccc1F` had a melting point of 129 to 132 °C.

`Cc1ccc(C(=O)Nc2ccc(CN3CCCC3)c(C(F)(F)F)c2)cc1-c1ccc2cnncc2c1` yielded a melting point of 168 to 170 °C.

For the molecule `CC1C=C2C(=CC=CC23NC(=O)NC3=O)O1` (stereo not drawn), the melting point fell in the range of 234 to 236 °C.

In turn, `O=C(c1cc2c3ccccc3n(Cc3ccccc3)c2s1)N1CCOCC1` registered a melting point of 199 to 201 °C.

For the molecule `CCCc1c(OCCCSc2nc3ccc(C(=O)O)cc3[nH]2)ccc(C(C)=O)c1OC(C)=O`, the melting point lay in the range of 85 to 87 °C.

In the case of `COc1ccc(C(=O)Nc2ccc(N3CCC(NC[C@H](O)COc4ccc(O)cc4)CC3)cc2)cc1OC`, the melting point is 77 to 84 °C.

For `O=c1c2cc(O)ccc2[nH]c2c([N+](=O)[O-])ccc(Cl)c12`, the melting point is > 325 °C.

The molecule `CNC(=O)/C(=N/OC)c1ccccc1COc1ncc(Cl)cc1C(F)(F)F` yielded a melting point of 105 to 106 °C.

Molecule `COc1ccc2oc(=O)cc(Oc3c(Cl)cccc3Cl)c2c1` had a melting point of 170 to 171 °C.

Consider `O=C(Nc1cccc(-c2ccnc3c(C(=O)c4cccs4)cnn23)c1)OCc1ccccn1`, for which the melting point is 121 to 125 °C.

Take `O=C1OCc2c(c3cc(-c4ccc(Cl)cc4)ccc3n2Cc2ccccc2)C1=O`: the melting point was 263 to 264 °C.

Turning to `N#CSCC(Cl)=C(Cl)CCl`, the melting point was 60 to 63 °C.

In turn, `Cn1c2cccc(Br)c2c2nc3ccccc3nc21` showed a melting point of 208 to 209 °C.

For the molecule `C=C(Br)Cc1c(O)ccc2c(C)cc(=O)oc12`, the melting point is 201 to 202 °C.

`CC(=O)NC[C@@H]1CCCc2cc(Sc3ccccc3)cc(F)c21` registered a melting point of 94.6 to 95.9 °C.

`Clc1cc(Cl)n2c(-c3cccs3)ncc2n1` came in with a melting point of 152 to 153 °C.

Turning to `Cc1cc(=O)n2nc(-c3ccncc3)nc2n1C`, the melting point is 263 to 267 °C.

On to `CC(C)OC1C=CC(=O)N1S(=O)(=O)c1ccccc1` (stereo not drawn), for which the melting point was in the range of 148 to 149 °C.

On to `O=C(CC1(c2ccccc2)CCCC1)C(=O)Nc1ccc2c(c1)COC2=O`, for which the melting point lay within 140 to 144 °C.

Molecule `CCOC(=O)C1CCNC(=O)C1=O` (stereo not drawn) yielded a melting point of 148 to 151 °C.

`O=C1NCN(c2ccc(F)cc2)C12CCN(CCCn1c(=O)[nH]c3ccccc31)CC2`: the melting point was found to be 215 °C.

Molecule `O=S(=O)(Nc1ccc(Oc2cccc3cccnc23)cc1)c1ccc(Cl)cc1` showed a melting point of 220 °C.

Molecule `CN1CCN(c2cc3c(cc2F)c(=O)n(O)c(=O)n3-c2ccc(F)c(Cl)c2)CC1` came in with a melting point of 197 to 199 °C.

`c1cc2cc(CSc3nnc(-c4ccc5c(c4)CCO5)o3)ccc2o1` yielded a melting point of 145 to 147 °C.

Regarding `CCS(=O)(=O)CCC(=O)NNC(=O)N1Cc2ccccc2Oc2ccc(C(F)(F)F)cc21`, the melting point is 139 to 145 °C.

`CCc1nn(-c2cc(NC(=O)c3ccccc3)ccc2Cl)c(=O)n1Cc1ccc(-c2ccccc2S(=O)(=O)NC(=O)OC(C)(C)C)cc1F` displayed a melting point of 79 to 81 °C.

For the molecule `Nc1c(NCc2ccccc2)ccnc1Cl`, the melting point lay within 176 to 179 °C.

Regarding `COC(=O)c1ccc(N2CCC(N(C)Cc3ccc(F)cc3)CC2)cc1`, the melting point is 92 °C.
